US6737383B1, “Herbicidal oxadiazolidines” (priority 1999, dated 2004)

Key:
[1] = tested on: wild oat; assay: Test B pre/postemergence wild oat; type: in vivo, Avena fatua
Outline: (§1)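 Response is a visual 0-to-10 score relative to untreated plants, where 0 means no effect and 10 means complete control, taken twelve to sixteen days after application. Treatments went onto soil at planting and onto foliage of 1- to 4-leaf plants, using a surfactant-containing non-phytotoxic solvent.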

[2] = tested on: morningglory; assay: Test B pre/postemergence morningglory; type: in vivo, Ipomoea hederacea
Outline: as §1

[3] = tested on: smallflower flatsedge; assay: Test B flood test smallflower flatsedge; type: in vivo, Cyperus difformis
Outline: (§2)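 Each value is a visual injury score relative to controls, with 10 meaning complete control and 0 no effect. Evaluation took place twelve to sixteen days after the 2-leaf-stage plants were treated and kept in the greenhouse.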

[4] = tested on: blackgrass; assay: Test B pre/postemergence blackgrass; type: in vivo, Alopecurus myosuroides
Outline: as §1

[5] = tested on: bamyardgrass; assay: Test B flood test barnyardgrass; type: in vivo, Echinochloa crus-galli
Outline: as §2

[6] = tested on: pigweed; assay: Test B pre/postemergence pigweed; type: in vivo, Amaranthus retroflexus
Outline: as §1

[7] = tested on: giant foxtail; assay: Test B pre/postemergence giant foxtail; type: in vivo, Setaria faberii
Outline: as §1

[8] = tested on: crabgrass; assay: Test B pre/postemergence crabgrass; type: in vivo, Digitaria sanguinalis
Outline: as §1

[9] = tested on: cocklebur; assay: Test B pre/postemergence cocklebur; type: in vivo, Xanthium strumarium
Outline: as §1

[10] = tested on: rice; assay: Test B flood test rice; type: in vivo, Oryza sativa
Outline: as §2

[11] = tested on: velvetleaf; assay: Test B pre/postemergence velvetleaf; type: in vivo, Abutilon theophrasti
Outline: as §1

[12] = tested on: soybean; assay: Test B pre/postemergence soybean; type: in vivo, Glycine max
Outline: as §1

[13] = tested on: surinam grass; assay: Test B pre/postemergence surinam grass; type: in vivo, Brachiaria decumbens
Outline: as §1

[14] = tested on: bedstraw; assay: Test B pre/postemergence bedstraw; type: in vivo, Galium aparine
Outline: as §1

[15] = tested on: purple nutsedge; assay: Test B pre/postemergence purple nutsedge; type: in vivo, Cyperus rotundus
Outline: as §1

[16] = tested on: wheat; assay: Test B pre/postemergence wheat; type: in vivo, Triticum aestivum
Outline: as §1

[17] = Postemergence, Rate 500 g/ha, scale of 0 to 10 where 0 is no effect and 10 is complete control
[18] = Preemergence, Rate 62 g/ha, scale 0 to 10 (0 no effect, 10 complete control)
[19] = Preemergence, Rate 125 g/ha, scale of 0 to 10 where 0 is no effect and 10 is complete control
[20] = Preemergence, Rate 250 g/ha, scale 0 to 10, 0 is no effect, 10 is complete control
[21] = Preemergence, Rate 500 g/ha, scale 0 to 10, 0 is no effect, 10 is complete control
[22] = Rate 62 g/ha, Postemergence, scale of 0 to 10 where 0 is no effect and 10 is complete control
[23] = Postemergence, Rate 250 g/ha, scale 0 to 10, 0 is no effect, 10 is complete control
[24] = Rate 62 g/ha, flood test species, Pre-emergence, visual evaluation after twelve to sixteen days
[25] = Rate 125 g/ha, under heading Pre-emergence, flood test species, visual evaluation after twelve to sixteen days
[26] = Rate 250 g/ha, Pre-emergence, flood-test species, scale 0 to 10, 0 is no effect, 10 is complete control
[27] = Rate 500 g/ha, Pre-emergence, flood test species, scale 0 to 10 (0 no effect, 10 complete control)
[28] = Preemergence, Rate 250 g/ha, scale of 0 to 10 where 0 is no effect and 10 is complete control
[29] = Postemergence, Rate 125 g/ha, scale 0 to 10, 0 is no effect, 10 is complete control

CC1CC1Cn1c(=O)on(C(=O)N(c2ccc(F)cc2)C(C)C)c1=O (stereo not shown) [Compound 402]
5: Plant response rating, Barnyardgrass (0 to 10 scale, 0 is no effect, 10 is complete control) [5, 24] | Barnyardgrass plant response rating (0 to 10 scale, 0 is no effect, 10 is complete control) [5, 25] | Plant response rating, Redroot pigweed [6, 23] | Plant response rating, Crabgrass [8, 23] | Cocklebur plant response rating [9, 17] | B. signalgrass plant response rating [13, 17]
0: Wild oats plant response rating [1, 22] | Plant response rating, Morningglory [2, 18] | Plant response rating, Morningglory [2, 19] | Plant response rating, S. Flatsedge (0 to 10 scale, 0 is no effect, 10 is complete control) [3, 24] | S. Flatsedge plant response rating (0 to 10 scale, 0 is no effect, 10 is complete control) [3, 25] | S. Flatsedge plant response rating [3, 26] | Plant response rating, Redroot pigweed [6, 18] | Plant response rating, Cocklebur [9, 18] | Plant response rating, Cocklebur [9, 19] | Cocklebur plant response rating [9, 20] | Cocklebur plant response rating [9, 21] | Cocklebur plant response rating [9, 22] | Plant response rating, Velvetleaf [11, 18] | Plant response rating, Velvetleaf [11, 19] | Velvetleaf plant response rating [11, 22] | Plant response rating, Soybean [12, 18] | Plant response rating, Soybean [12, 19] | Soybean plant response rating [12, 20] | Plant response rating, B. signalgrass [13, 18] | B. signalgrass plant response rating [13, 22] | Plant response rating, Nutsedge [15, 23] | Nutsedge plant response rating [15, 17] | Plant response rating, Nutsedge [15, 18] | Plant response rating, Nutsedge [15, 19] | Nutsedge plant response rating [15, 20] | Nutsedge plant response rating [15, 21] | Nutsedge plant response rating [15, 22] | Wheat plant response rating [16, 17] | Plant response rating, Wheat [16, 18] | Plant response rating, Wheat [16, 19] | Wheat plant response rating [16, 22]
3: Wild oats plant response rating [1, 17] | Morningglory plant response rating [2, 22] | Plant response rating, Blackgrass [4, 18] | Plant response rating, Crabgrass [8, 29] | Crabgrass plant response rating [8, 22] | Velvetleaf plant response rating [11, 20] | Plant response rating, B. signalgrass [13, 19] | Plant response rating, Bedstraw [14, 29] | Plant response rating, Bedstraw [14, 19] | Bedstraw plant response rating [14, 22] | Wheat plant response rating [16, 20]
10: Wild oats plant response rating [1, 21] | Morningglory plant response rating [2, 17] | Blackgrass plant response rating [4, 21] | Redroot pigweed plant response rating [6, 21] | Plant response rating, Giant foxtail [7, 18] | Plant response rating, Giant foxtail [7, 19] | Giant foxtail plant response rating [7, 20] | Giant foxtail plant response rating [7, 21] | Crabgrass plant response rating [8, 20] | Crabgrass plant response rating [8, 21] | Bedstraw plant response rating [14, 21]
4: Plant response rating, Wild oats [1, 19] | Redroot pigweed plant response rating [6, 20] | Plant response rating, Cocklebur [9, 23] | Plant response rating, Velvetleaf [11, 23] | Velvetleaf plant response rating [11, 17] | Soybean plant response rating [12, 22] | B. signalgrass plant response rating [13, 28]
8: Wild oats plant response rating [1, 20] | Plant response rating, Morningglory [2, 23] | Barnyardgrass plant response rating [5, 26] | Plant response rating, Giant foxtail [7, 29] | Giant foxtail plant response rating [7, 22] | Velvetleaf plant response rating [11, 21] | Soybean plant response rating [12, 17] | Bedstraw plant response rating [14, 17]
6: Plant response rating, Soybean [12, 23] | Wheat plant response rating [16, 21]
2: Morningglory plant response rating [2, 20] | Morningglory plant response rating [2, 21] | S. Flatsedge plant response rating [3, 27] | Plant response rating, Redroot pigweed [6, 19] | Redroot pigweed plant response rating [6, 22] | Rice plant response rating [10, 26] | Rice plant response rating [10, 27] | Plant response rating, B. signalgrass [13, 29] | Plant response rating, B. signalgrass [13, 23] | Plant response rating, Bedstraw [14, 18]
9: Blackgrass plant response rating [4, 17] | Blackgrass plant response rating [4, 28] | Barnyardgrass plant response rating [5, 27] | Plant response rating, Giant foxtail [7, 23] | Giant foxtail plant response rating [7, 17] | Crabgrass plant response rating [8, 17] | Plant response rating, Crabgrass [8, 18] | Plant response rating, Crabgrass [8, 19] | B. signalgrass plant response rating ([13]; Preemergence, Rate 500 g/ha, scale of 0 to 10 where 0 is no effect and 10 is complete control)
7: Plant response rating, Blackgrass [4, 19] | Redroot pigweed plant response rating [6, 17] | Plant response rating, Bedstraw [14, 23]
1: Plant response rating, Wild oats [1, 18] | Plant response rating, Cocklebur [9, 29] | Plant response rating, Rice (0 to 10 scale, 0 is no effect, 10 is complete control) [10, 24] | Rice plant response rating (0 to 10 scale, 0 is no effect, 10 is complete control) [10, 25] | Soybean plant response rating [12, 21]
